Assays:
Assay type in all cases: cell-based
Conditions in all cases: HPEK-50 cells, 10 μg/ml, 6 hours, 37° C.
KRT10 gene = assay: qPCR relative expression of KRT10 gene in human epidermal keratinocytes HPEK-50
Procedure: (§1) The human epidermal keratinocytes HPEK-50 were cultured with a keratinocyte-SFM at 37° C. for 24 hours. Thereafter, the cells were divided into eight groups and respectively cultured with the following media at 37° C. for 6 hours: • 1. Control group: keratinocyte-SFM; • 2. “Supernatant” group: keratinocyte-SFM that was additionally added with 62.5 μg/ml of the supernatant obtained from [Preparation Example] B; • 3. “Fraction 1” group: keratinocyte-SFM that was additionally added with 62.5 μg/ml of the Fraction 1 obtained from [Preparation Example] C-1; • 4. “Fraction 2” group: keratinocyte-SFM that was additionally added with 62.5 μg/ml of the Fraction 2 obtained from [Preparation Example] C-1; • 5. […]
(§2) To investigate the effects of metabolites of Alteromonas macleodii Dow02-2 and 2-hydroxy-3-methylbutyric acid on moisturizing skin, inventors of the present invention collected the cells in each group of Example 1-1. […] Thereafter, the cDNA was subjected to a quantitative polymerase chain reaction (qPCR) by using a KAPA CYBR FAST qPCR kit (purchased from KAPA Biosystems) and ABI StepOne Plus™ System to determine the expression levels of moisturizing-related genes such as TGM1 gene, KRT1 gene, KRT10 gene, KRT14 gene, FLG gene, GBA gene and HAS3 gene in the cells of each group. […]

HAS3 gene = assay: qPCR relative expression of HAS3 gene in human epidermal keratinocytes HPEK-50
Procedure: as §1, §2

TGM1 gene = assay: qPCR relative expression of TGM1 gene in human epidermal keratinocytes HPEK-50
Procedure: as §1, §2

GBA gene = assay: qPCR relative expression of GBA gene in human epidermal keratinocytes HPEK-50
Procedure: as §1, §2

KRT14 gene = assay: qPCR relative expression of KRT14 gene in human epidermal keratinocytes HPEK-50
Procedure: as §1, §2

FLG gene = assay: qPCR relative expression of FLG gene in human epidermal keratinocytes HPEK-50
Procedure: as §1, §2

KRT1 gene = assay: qPCR relative expression of KRT1 gene in human epidermal keratinocytes HPEK-50
Procedure: as §1, §2

For `CC(C)C(O)C(=O)O` (stereo not shown) [2-hydroxy-3-methylbutyric acid], the “increase of expression level of KRT10 gene in comparison with the control group” value (KRT10 gene) was 158%, the “increase of expression level of HAS3 gene in comparison with the control group” value (HAS3 gene) was 97% and the “increase of expression level of TGM1 gene in comparison with the control group” value (TGM1 gene) was 26%. For the same compound, the “increase of expression level of GBA gene in comparison with the control group” value (GBA gene) was 49%, the “increase of expression level of KRT14 gene in comparison with the control group” value (KRT14 gene) was 43% and the “increase of expression level of FLG gene in comparison with the control group” value (FLG gene) was 41%. The “increase of expression level of KRT1 gene in comparison with the control group” value (KRT1 gene) was 29%.

— patent US11304892B2, “Alteromonas macleodii Dow02-2 and its metabolites for improving skin moisturization” (TCI Co., Ltd., priority 2018, dated 2022)
